# Patent US20210181109A1 (FUJIFILM Corporation, priority 2018, published 2021)
# Like-named read-outs stand apart in the source and are kept apart here.
# Experiments:
# [1] = NAC depletion percent, HPLC-fluorescence detection
# Experimental: (§1) 1) To a 50 mL vessel, 11.6 mg (±0.1 mg) of NAC is weighed; to this, a 25 mL measuring pipet is used to add 20 mL of 100 mmol/L phosphate buffer (pH: 8.0); and the content is gently stirred using a test tube mixer to achieve dissolution (2 mmol/L). 2) To a 500 mL vessel, 149.5 mL of this buffer is added using a 50 mL measuring pipet; to this, 0.5 mL of the above-described 2 mmol/L NAC solution is added; and the content is mixed by inversion to achieve 300-fold dilution (6.667 μmon).
# (§2) The test substance undiluted solution is defined as an “undiluted solution”, and used. Incidentally, this “undiluted solution” may be appropriately diluted to, for example, 1/10, 1/100, or 1/1000, using an appropriate solvent, and the resultant solution may be used.
# (§3) Subsequently, the solution having the maximum dissolution concentration is defined as an “undiluted solution”, and tested. Incidentally, this “undiluted solution” may be appropriately diluted to, for example, 1/10, 1/100, or 1/1000, using an appropriate solvent, and the resultant solution may be used.
# (§4) The test substance is prepared at 1 mmol/L in any of solvents that are water, acetonitrile, acetone, and a 5 mass % dimethyl sulfoxide (DMSO)/acetonitrile solution and used as a test substance solution. As the solvent, a solvent in which the test substance dissolves at 1 mmol/L is used; when the test substance is soluble in a plurality of solvents, the solvent is selected in the following order of decreasing precedence: water, acetonitrile, acetone, and 5 mass % DMSO/acetonitrile.
# (§5) Test substance solutions are prepared on a 96-well plate (U96 PP-0.5 ML NATURAL, Thermo Fisher Scientific Inc. (NUNC)) mainly using a 12-channel pipette, and a reagent is added in accordance with the following formula.
# (§6) Nucleophilic reagent (NAC and NAL): 150 μL
# (§7) Test substance solution: 50 μL
# (§8) The plate is tightly sealed using a plate sealing (Resistant embossed seal, SHIMADZU GLC Ltd.), and stirred using a plate shaker (Titramax 100, Heidolph Instruments GmbH & CO. KG). The plate is subjected to spinning down using a centrifuge, and then to incubation at 25° C., for 24 hours, in a light-shielded state.
# (§9) After the incubation for 24 hours, the plate sealing is removed; to each sample, 50 µL of the reaction stopping solution is added to stop the reaction.
# (§10) The HPLC measurement conditions for the nucleophilic reagents are as follows.
# (§11) From the average values (each, n=3) of peak areas of the post-reaction unreacted NAC or NAL and the blank-test (after performing the reaction step without addition of the test substances) NAC or NAL, the following formula is used to calculate the depletion percent of NAC or NAL.
# (§12) NAC depletion percent (% depletion)=[1−(Average value of peak areas of post-reaction unreacted NAC/Average value of peak areas of blank-test (after performing the reaction step without addition of the test substances) NAC)]×100
# (§13) The average value of peak areas of the post-reaction unreacted NAC is the average value of areas obtained by measuring three times post-reaction unreacted NAC. The average value of peak areas of blank-test (after performing the reaction step without addition of the test substances) NAC is the average value of areas obtained by measuring three times blank-test (after performing the reaction step without addition of the test substances) NAC.
# (§14) The reactions were each performed on a 96-well plate, and the number of samples of each case was set to n=3. In addition, as controls, reaction solutions including the solvent alone were prepared. The reaction solutions were prepared so as to have a NAC or NAL concentration of 5 μmon. To the reaction solutions after the lapse of 24 hours, a trifluoroacetic acid (TFA) aqueous solution was added such that the final concentration became 0.5% (v/v) TFA. Subsequently, HPLC was performed for measurements by two detection methods that were light absorption detection using a photodiode array (PDA) detector, and fluorescence detection using a fluorescence detector.
# [2] = NAL depletion percent, HPLC-fluorescence detection
# Experimental: as §1, with “12.6” for “11.6”, “NAL” for “NAC”, “10.2);” for “8.0);”, “mixture” for “mixer”, “mmol/L NAL solution).” for “mmol/L).”, “μmol/L).” for “μmon).”
# as §2, §3, §4, §5, §6, §7, §8, §9, §10, §11
# (§15) NAL depletion percent (% depletion)=[1−(Average value of peak areas of post-reaction unreacted NAL/Average value of peak areas of blank-test (after performing the reaction step without addition of the test substances) NAL)]×100
# (§16) The average value of peak areas of post-reaction unreacted NAL is the average value of areas obtained by measuring three times post-reaction unreacted NAL. The average value of peak areas of blank-test (after performing the reaction step without addition of the test substances) NAL is the average value of areas obtained by measuring three times blank-test (after performing the reaction step without addition of the test substances) NAL.
# as §14
# [3] = Average score of NAC and NAL depletion and prediction of skin allergenicity, fluorescence method; details: for Average score: test substance solution 1 mmol/L; for determination of skin allergenicity from average score: criterion […]
# Experimental: (§17) The average value (Average Score) of NAC and NAL depletion percents is calculated. In the resultant value, the second decimal place is rounded off.
# (§18) Average value (Average Score) of NAC and NAL depletion percents=(NAC depletion percent+NAL depletion percent)/2
# (§19) The depletion percent of at least one of NAC or NAL or the average score of the depletion percents of NAC and NAL is calculated, and whether or not the test substances are “allergenic substances” or “non-allergenic substances” is determined:
# (§20) (1) in a case of performing evaluation based on the average value of the depletion percent of NAC and the depletion percent of NAL,
# (§21) In the following Tables, S represents as being an allergenic substance and NS represents as being a non-allergenic substance.
# [4] = NAC depletion percent, HPLC-UV detection (281 nm)
# Experimental: as §1, §2, §3, §4, §5, §6, §7, §8, §9, §10, §11, §12, §13, §14
# [5] = NAL depletion percent, HPLC-UV detection (281 nm)
# Experimental: as §1, with “12.6” for “11.6”, “NAL” for “NAC”, “10.2);” for “8.0);”, “mixture” for “mixer”, “mmol/L NAL solution).” for “mmol/L).”, “μmol/L).” for “μmon).”
# as §2, §3, §4, §5, §6, §7, §8, §9, §10, §11, §15, §16, §14
# [6] = Average score of NAC and NAL depletion and prediction of skin allergenicity, UV method; details: for Average score: test substance solution 1 mmol/L; for Mean Depletion (%) (average score) / determination of skin allergenicity from average score: UV method; for determination of skin allergenicity from average score: criterion […]
# Experimental: as §17, §18, §19, §20, §21
# [7] = cited from earlier work
# [8] = single substance, test substance solution 1 mmol/L, fluorescence method
# [9] = single substance, fluorescence method, criterion average score […]
# [10] = single substance, fluorescence method
# [11] = single substance, test substance solution 1 mmol/L, Reference (UV method)
# [12] = single substance, Reference (UV method), criterion average score […]
# [13] = single substance, Reference (UV method)
# [14] = known values, LLNA-test-based classification, − for non-allergenic substances
# [15] = Fluorescence method, non-allergenic substance
# [16] = Reference (UV method), non-allergenic substance
# [17] = 1/1 (undiluted solution), fluorescence method, 25° C. 24 hours
# [18] = 1/10 diluted solution, fluorescence method
# [19] = 1/1 (undiluted solution), fluorescence method
# [20] = 1/1 (undiluted solution), UV method
# [21] = 1/10 diluted solution, UV method
Molecule,"NAC depletion (%) [1, 8] [%]","NAL depletion (%) [2, 8] [%]","Prediction result [3, 9]","Average score [3, 10] [%]","NAC depletion (%) [4, 11] [%]","NAL depletion (%) [5, 11] [%]","Prediction result [6, 12]","Average score [6, 13] [%]","EC3 (%) [7, 14] [%]",EC3 (%) ([7]; in vivo),further results
O=C1OC(=O)c2ccccc21 [Phthalic anhydride],0.3,92.6,S (S represents as being an allergenic substance),46.4,0.3,96.9,S (S represents as being an allergenic substance),48.6,0.16,,
O=CC=Cc1ccccc1 [Cinnamaldehyde],54.1,12.8,,33.4,37.0,13.1,,25.0,,3%,
CCCCCC(C=O)=Cc1ccccc1 [α-Amylcinnamaldehyde],0.3,0.4,NS (NS represents as being a non-allergenic substance),0.3,0.0,1.6,NS (NS represents as being a non-allergenic substance),0.8,11,,
"CC(C)(C)C(=O)CC(=O)C(C)(C)C [2,2,6,6-Tetramethyl-3,5-heptanedione]",0.0,0.0,NS (NS represents as being a non-allergenic substance),0.0,0.5,1.6,NS (NS represents as being a non-allergenic substance),1.1,27,,
Cn1sccc1=O [2-Methyl-2H-isothiazol-3-one],98.5,4.6,S (S represents as being an allergenic substance),51.6,94.0,7.0,S (S represents as being an allergenic substance),50.5,1.9,,
O=CCCCC=O [Glutaraldehyde],0.0,47.4,S (S represents as being an allergenic substance),23.7,0.8,53.1,S (S represents as being an allergenic substance),26.9,0.1,,
C=CC(=O)OCC [Ethyl acrylate],88.7,10.6,S (S represents as being an allergenic substance),49.6,87.8,13.7,S (S represents as being an allergenic substance),50.8,,28%,
Fluorescein isothiocyanate,81.3,97.6,S (S represents as being an allergenic substance),89.4,73.6,98.1,S (S represents as being an allergenic substance),85.8,,0.14%,
CCCOC(=O)c1ccc(O)cc1 [Propylparaben],,,,,,,,,,−,"NAC depletion (%) [1, 15]: 0.5%; NAL depletion (%) [2, 15]: 4.4%; NAC depletion (%) [4, 16]: 0.1%; NAL depletion (%) [5, 16]: 1.9%"
CCCCO [1-Butanol],,,,,,,,,,−,"NAC depletion (%) [1, 15]: 2.1%; NAL depletion (%) [2, 15]: 0.3%; NAC depletion (%) [4, 16]: 0.1%; NAL depletion (%) [5, 16]: 0.8%"
C=O [Formaldehyde],,,,,,,,,,0.61%,Prediction result [3]: S (key: S represents as being an allergenic substance; NS represents as being a non-allergenic substance); Prediction result [6]: S (key: S represents as being an allergenic substance; NS represents as being a non-allergenic substance)
"CC[C@H](CC[C@@H](C)[C@H]1CC[C@H]2[C@@H]3CC=C4C[C@@H](O)CC[C@]4(C)[C@H]3CC[C@]12C)C(C)C [β-sitosterol, β-Sitosterol]",,,,,,,,,,,"NAC depletion (%) [1, 17]: 0.0%; NAC depletion (%) [1, 18]: 0.6%; NAL depletion (%) [2, 17]: 0.1%; NAL depletion (%) [2, 18]: 0.0%; Mean Depletion (%) (average score) [3, 19]: 0.1%; determination of skin allergenicity from average score [3, 19]: not having skin allergenicity; Mean Depletion (%) (average score) [3, 18]: 0.3%; determination of skin allergenicity from average score [3, 18]: not having skin allergenicity; NAC depletion (%) [4, 20]: 0.0%; NAC depletion (%) [4, 21]: 3.9%; NAL depletion (%) [5, 20]: 0.0%; NAL depletion (%) [5, 21]: 0.0%; Mean Depletion (%) (average score) ([6]; 1/1 (undiluted solution)): 0.0%; determination of skin allergenicity from average score ([6]; 1/1 (undiluted solution)): not having skin allergenicity; Mean Depletion (%) (average score) ([6]; 1/10 diluted solution): 1.9%; determination of skin allergenicity from average score ([6]; 1/10 diluted solution): not having skin allergenicity"
COc1cc(C=O)ccc1O [Vanillin],,,,,,,,,,,"NAC depletion (%) [1, 15]: 2.0%; NAL depletion (%) [2, 15]: 0.0%; Prediction result ([3]; Fluorescence method, skin allergenicity prediction): NS (NS represents as being a non-allergenic substance); NAC depletion (%) [4, 16]: 1.5%; NAL depletion (%) [5, 16]: 1.9%; Prediction result ([6]; Reference (UV method), skin allergenicity prediction): NS (NS represents as being a non-allergenic substance)"
